According to patent publication US20230192700A1, “PYRAZOLOPYRAZINES ACTING ON CANCERS VIA INHIBITION OF CDK12” (Bayer Aktiengesellschaft, priority 2020, published 2023):
pIC50: −log10 of the molar value. Where two headings read alike, the source gives them in different places.

What was measured:
CDK12 = target: T1, CDK12 (Homo sapiens, UniProt Q9NYV4); test: CDK12 nuclear protein level: immunofluorescence/high content analysis in CAL-120 cells; type: cell-based; details: for DC50: CAL-120 cells, 24 h, nuclear CDK12 staining intensity, median, read-out: CDK12 degradation IF DC50 - [mol/l] (median); for (IC50 CDK12 high ATP) to (Degradation DC50 CDK12) ratio: ratio of IC50 CDK12 hATP (2 mM ATP) to DC50 CDK12 (IF, CAL-120)
T1 construct: endogenous in cells; host or cells: CAL-120 human breast cancer cells (DSMZ ACC 459)
T1 sequence (Q9NYV4 whole entry): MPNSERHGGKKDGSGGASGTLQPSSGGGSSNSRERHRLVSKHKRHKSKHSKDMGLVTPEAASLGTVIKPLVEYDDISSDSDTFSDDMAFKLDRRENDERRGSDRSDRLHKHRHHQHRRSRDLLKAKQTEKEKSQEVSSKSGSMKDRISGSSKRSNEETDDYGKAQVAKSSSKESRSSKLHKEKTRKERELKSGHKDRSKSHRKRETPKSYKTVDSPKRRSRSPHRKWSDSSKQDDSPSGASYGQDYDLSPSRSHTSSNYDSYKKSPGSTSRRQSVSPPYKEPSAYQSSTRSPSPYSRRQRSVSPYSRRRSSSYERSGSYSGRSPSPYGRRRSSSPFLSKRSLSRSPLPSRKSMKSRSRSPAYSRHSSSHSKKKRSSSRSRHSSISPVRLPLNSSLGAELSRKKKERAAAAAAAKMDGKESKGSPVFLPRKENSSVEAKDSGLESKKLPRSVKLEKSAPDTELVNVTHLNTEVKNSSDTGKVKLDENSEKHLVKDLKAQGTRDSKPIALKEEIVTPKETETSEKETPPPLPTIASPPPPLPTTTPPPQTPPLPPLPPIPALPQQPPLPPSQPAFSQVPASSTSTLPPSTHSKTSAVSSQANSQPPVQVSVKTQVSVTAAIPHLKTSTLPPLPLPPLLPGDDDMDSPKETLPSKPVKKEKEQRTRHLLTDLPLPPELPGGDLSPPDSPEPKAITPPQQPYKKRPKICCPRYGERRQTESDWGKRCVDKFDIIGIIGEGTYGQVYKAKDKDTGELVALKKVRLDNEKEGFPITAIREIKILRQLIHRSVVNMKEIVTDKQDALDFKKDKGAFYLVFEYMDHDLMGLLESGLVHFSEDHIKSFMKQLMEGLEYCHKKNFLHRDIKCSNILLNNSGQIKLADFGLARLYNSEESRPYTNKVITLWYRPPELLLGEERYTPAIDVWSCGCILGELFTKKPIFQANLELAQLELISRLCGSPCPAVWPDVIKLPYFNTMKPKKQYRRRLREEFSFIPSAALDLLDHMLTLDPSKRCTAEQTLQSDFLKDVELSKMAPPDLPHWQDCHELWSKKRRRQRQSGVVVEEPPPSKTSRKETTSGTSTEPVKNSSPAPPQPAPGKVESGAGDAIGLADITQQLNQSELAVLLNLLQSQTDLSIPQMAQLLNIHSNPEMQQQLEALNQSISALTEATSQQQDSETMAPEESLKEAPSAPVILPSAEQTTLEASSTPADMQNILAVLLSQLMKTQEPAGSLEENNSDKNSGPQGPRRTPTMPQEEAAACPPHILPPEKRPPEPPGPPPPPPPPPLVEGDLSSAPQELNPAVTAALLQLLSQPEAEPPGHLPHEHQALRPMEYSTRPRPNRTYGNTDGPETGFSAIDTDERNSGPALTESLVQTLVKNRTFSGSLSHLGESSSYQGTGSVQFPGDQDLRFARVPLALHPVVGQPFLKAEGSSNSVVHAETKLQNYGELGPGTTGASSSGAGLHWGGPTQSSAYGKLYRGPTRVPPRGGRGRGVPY
T1 sequence (O75909 whole entry partner): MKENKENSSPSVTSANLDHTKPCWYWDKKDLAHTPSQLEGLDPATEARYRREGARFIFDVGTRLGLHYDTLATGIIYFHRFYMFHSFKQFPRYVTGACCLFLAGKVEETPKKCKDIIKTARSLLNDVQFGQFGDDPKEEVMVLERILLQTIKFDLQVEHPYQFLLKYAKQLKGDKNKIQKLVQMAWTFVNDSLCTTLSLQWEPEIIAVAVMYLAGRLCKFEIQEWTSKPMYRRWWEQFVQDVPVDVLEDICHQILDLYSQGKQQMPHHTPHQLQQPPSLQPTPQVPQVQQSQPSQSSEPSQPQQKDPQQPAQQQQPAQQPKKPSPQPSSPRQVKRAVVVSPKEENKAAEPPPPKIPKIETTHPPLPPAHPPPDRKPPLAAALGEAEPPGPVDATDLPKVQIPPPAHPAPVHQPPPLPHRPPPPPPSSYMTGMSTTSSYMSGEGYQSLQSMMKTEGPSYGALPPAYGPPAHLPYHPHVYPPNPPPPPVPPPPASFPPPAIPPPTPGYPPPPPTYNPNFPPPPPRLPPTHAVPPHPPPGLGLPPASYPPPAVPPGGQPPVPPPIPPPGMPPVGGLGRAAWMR
Summary of the method: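 Cells were exposed to compounds in dose-response for 24 h at 37 °C, then PFA-fixed, immunostained for CDK12 and counterstained with Hoechst before confocal imaging. Nuclear CDK12 intensity was normalized to DMSO and control. DC50 is the concentration giving 50% reduction of nuclear staining.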

[1] = system: MDA-MB-231 human breast cancer cells; test: Proliferation assay MDA-MB-231 (crystal violet); type: cell-based; details: MDA-MB-231 cells, 4 days, median, read-out: Prolif-MDA MB231 IC50 - [mol/l] (median)
Description: 4. Proliferation assay: MDA-MB-231, CAL-120
Human tumour cells were originally obtained from the American Type Culture Collection (ATCC), or from the Deutsche Sammlung von Mikroorganismen and Zellkulturen (DSMZ, German Collection of Microorganisms and Cell Cultures). Cultivated tumour cells (CAL-120, human breast adenocarcinoma cells, DSMZ ACC-459; MDA-M B-231, human breast cancer cells, ATCC HTB-26) were plated at a density of 4,000 cells/well in a 96-well multititer plate in 200 microL of their respective growth medium supplemented 10% fetal calf serum. After 24 hours, the cells of one plate (zero-point plate) were stained with crystal violet (see below), while the medium of the other plates was supplemented with the test substances in various concentrations (0 micromol/L, as well as in the range of 0.01-10 micromol/L; the final concentration of the solvent dimethyl sulfoxide was adjusted to 0.1%) using a Tecan HP D300 Digital Dispenser. The cells were incubated for 4 days in the presence of test substances. Cell proliferation was determined by staining the cells with crystal violet: the cells were fixed by adding 20 microL/measuring point of an 11% glutaric aldehyde solution for 15 minutes at room temperature. After three washing cycles of the fixed cells with water, the plates were dried at room temperature. The cells were stained by adding 100 microL/measuring point of a 0.1% crystal violet solution (pH 3.0). After three washing cycles of the stained cells with water, the plates were dried at room temperature. The dye was dissolved by adding 100 microL/measuring point of a 10% acetic acid solution. The extinction was determined by photometry at a wavelength of 595 nm. The change of cell number, in percent, was calculated by normalization of the measured values to the extinction values of the zero-point plate(=0%) and the extinction of the untreated (0 μM) cells(=100%). The IC50 values (inhibitory concentration at 50% of maximal effect) were determined by means of a 4 parameter fit.

Structure (SMILES) | DC50 (CDK12) | (IC50 CDK12 high ATP) to (Degradation DC50 CDK12) ratio (CDK12) | pIC50 ([1]; Homo sapiens, MDA-MB-231, 96 h) | pIC50 [1]
O=CO.c1ccc(-n2nc(NCc3nc4ccccc4[nH]3)c3ncc(C4CC4)nc32)cc1 [Example 13, formic acid—N-[(1H-benzimidazol-2-yl)methyl]-6-cyclopropyl-1-phenyl-1H-pyrazolo[3,4-b]pyrazin-3-amine (1/1)] | 43.9 nM | >455 | 6.77 | 
OC[C@H]1C[C@@H](n2nc(NCc3nc4ccccc4[nH]3)c3ncc(C4CC4)nc32)C1 [Example 47, [cis-3-(3-{[(1H-benzimidazol-2-yl)methyl]amino}-6-cyclopropyl-1H-pyrazolo[3,4-b]pyrazin-1-yl)cyclobutyl]methanol] | 22.8 nM |  | 7.29 | 
OCC1(Cn2nc(NCc3nc4ccccc4[nH]3)c3ncc(C4CC4)nc32)CCC1 [Example 74, {1-[(3-{[(1H-benzimidazol-2-yl)methyl]amino}-6-cyclopropyl-1H-pyrazolo[3,4-b]pyrazin-1-yl)methyl]cyclobutyl}methanol] | 15.1 nM | >660 | 6.60 | 
CC(CCN(C)C)n1nc(NCc2nc3ccccc3[nH]2)c2ncc(C3CC3)nc21 (single isomer, unassigned) [Example 64, (−) or(+)-N-[(1H-benzimidazol-2-yl)methyl]-6-cyclopropyl-1-[4-(dimethylamino)butan-2-yl]-1H-pyrazolo[3,4-b]pyrazin-3-amine] | 82.6 nM | >242 |  | 6.27
COCCC(C)n1nc(NCc2nc3ccccc3[nH]2)c2ncc(C3CC3)nc21 (single isomer, unassigned; (-)) [Example 58, (−)-N-[(1H-benzimidazol-2-yl)methyl]-6-cyclopropyl-1-[4-methoxybutan-2-yl]-1H-pyrazolo[3,4-b]pyrazin-3-amine] | 27.2 nM | >735 |  | 6.67
OCCn1nc(NCc2nc3ccccc3[nH]2)c2ncc(C3CC3)nc21 [Example 66, 2-(3-{[(1H-benzimidazol-2-yl)methyl]amino}-6-cyclopropyl-1H-pyrazolo[3,4-b]pyrazin-1-yl)ethan-1-ol] | 19.4 nM | >1116 | 6.41 | 
CN1CCC(n2nc(NCc3nc4c(Br)cccc4[nH]3)c3ncc(C4CC4)nc32)CC1 [Example 20, N-[(4-bromo-1H-benzimidazol-2-yl)methyl]-6-cyclopropyl-1-(1-methylpiperidin-4-yl)-1H-pyrazolo[3,4-b]pyrazin-3-amine] | 22.2 nM | >1050 | 7.84 | 
CN1CCC(n2nc(NCc3nc4cc(F)c(F)cc4[nH]3)c3ncc(C4CC4)nc32)CC1 [Example 30, 6-cyclopropyl-N-[(5,6-difluoro-1H-benzimidazol-2-yl)methyl]-1-(1-methylpiperidin-4-yl)-1H-pyrazolo[3,4-b]pyrazin-3-amine] | 17.1 nM | >1376 | 7.52 | 
COCCC(C)n1nc(NCc2nc3ccccc3[nH]2)c2ncc(C3CC3)nc21 (racemic) [Example 57, (±)-N-[(1H-benzimidazol-2-yl)methyl]-6-cyclopropyl-1-(4-methoxybutan-2-yl)-1H-pyrazolo[3,4-b]pyrazin-3-amine] | 170 nM | >118 | 6.62 | 
c1ccc2[nH]c(CNc3nn(C4CCC4)c4nc(C5CC5)cnc34)nc2c1 [Example 49, N-[(1H-benzimidazol-2-yl)methyl]-1-cyclobutyl-6-cyclopropyl-1H-pyrazolo[3,4-b]pyrazin-3-amine] | 29.2 nM | >685 | 6.70 | 
CN1CCC(n2nc(NCc3nc4c(Cl)c(F)ccc4[nH]3)c3ncc(C4CC4)nc32)CC1 [Example 31, N-[(4-chloro-5-fluoro-1H-benzimidazol-2-yl)methyl]-6-cyclopropyl-1-(1-methylpiperidin-4-yl)-1H-pyrazolo[3,4-b]pyrazin-3-amine] | 14.4 nM | >1388 | 7.74 | 
COCCCn1nc(NCc2nc3ccccc3[nH]2)c2ncc(C3CC3)nc21 [Example 61, N-[(1H-benzimidazol-2-yl)methyl]-6-cyclopropyl-1-(3-methoxypropyl)-1H-pyrazolo[3,4-b]pyrazin-3-amine] | 163 nM | >123 | 6.47 | 
COc1cccc2[nH]c(CNc3nn(C4CCOCC4)c4nc(C5CC5)cnc34)nc12 [Example 24, 6-cyclopropyl-N-[(4-methoxy-1H-benzimidazol-2-yl)methyl]-1-(oxan-4-yl)-1H-pyrazolo[3,4-b]pyrazin-3-amine] | 12 nM | 1614 | 7.91 | 
Fc1ccc2[nH]c(CNc3nn(C4CCOCC4)c4nc(C5CC5)cnc34)nc2c1 [Example 53, 6-cyclopropyl-N-[(5-fluoro-1H-benzimidazol-2-yl)methyl]-1-(oxan-4-yl)-1H-pyrazolo[3,4-b]pyrazin-3-amine] | 32 nM |  | 7.63 | 

Molecules with a lower DC50 (CDK12), results first:

DC50 (CDK12) | (IC50 CDK12 high ATP) to (Degradation DC50 CDK12) ratio (CDK12) | pIC50 ([1]; Homo sapiens, MDA-MB-231, 96 h) | pIC50 [1] | Structure (SMILES)
11.1 nM | >2322 | 6.83 |  | CC1COCCC1n1nc(NCc2nc3ccccc3[nH]2)c2ncc(C3CC3)nc21 (racemic) [Example 42, (±)-cis/trans-N-[(1H-benzimidazol-2-yl)methyl]-6-cyclopropyl-1-(3-methyloxan-4-yl)-1H-pyrazolo[3,4-b]pyrazin-3-amine]
10.6 nM | >1880 | 7.70 |  | Cc1ccc2[nH]c(CNc3nn(C4CCN(C)CC4)c4nc(C5CC5)cnc34)nc2c1C [Example 28, 6-cyclopropyl-N-[(4,5-dimethyl-1H-benzimidazol-2-yl)methyl]-1-(1-methylpiperidin-4-yl)-1H-pyrazolo[3,4-b]pyrazin-3-amine]
2.55 nM | >7840 | 7.08 |  | O[C@H]1C[C@@H](n2nc(NCc3nc4ccccc4[nH]3)c3ncc(C4CC4)nc32)C1 [Example 40, cis-3-(3-{[(1H-benzimidazol-2-yl)methyl]amino}-6-cyclopropyl-1H-pyrazolo[3,4-b]pyrazin-1-yl)cyclobutan-1-ol]
4.66 nM | >4294 | 8.32 |  | CN1CCC(n2nc(NCc3nc4cc(Cl)c(Cl)cc4[nH]3)c3ncc(C4CC4)nc32)CC1 [Example 19, 6-cyclopropyl-N-[(5,6-dichloro-1H-benzimidazol-2-yl)methyl]-1-(1-methylpiperidin-4-yl)-1H-pyrazolo[3,4-b]pyrazin-3-amine]
3.15 nM |  | 7.82 |  | O[C@H]1CC[C@H](n2nc(NCc3nc4ccccc4[nH]3)c3ncc(C4CC4)nc32)CC1 [Example 50, trans-4-(3-{[(1H-benzimidazol-2-yl)methyl]amino}-6-cyclopropyl-1H-pyrazolo[3,4-b]pyrazin-1-yl)cyclohexan-1-ol]
1.92 nM |  | 8.43 |  | CN1CCC(n2nc(NCc3nc4c(F)cccc4[nH]3)c3ncc(C4CC4)nc32)CC1 [Example 3, 6-cyclopropyl-N-[(4-fluoro-1H-benzimidazol-2-yl)methyl]-1-(1-methylpiperidin-4-yl)-1H-pyrazolo[3,4-b]pyrazin-3-amine]
8.11 nM |  | 7.77 |  | c1ccc2[nH]c(CNc3nn(C4C[C@H]5CC[C@@H](C4)O5)c4nc(C5CC5)cnc34)nc2c1 (stereo partly drawn) [Example 45, exo/endo-N-[(1H-benzimidazol-2-yl)methyl]-6-cyclopropyl-1-(8-oxabicyclo[3.2.1]octan-3-yl)-1H-pyrazolo[3,4-b]pyrazin-3-amine]
2.17 nM | >9202 | 6.91 |  | CC(C)(O)CCn1nc(NCc2nc3ccccc3[nH]2)c2ncc(C3CC3)nc21 [Example 76, 4-(3-{[(1H-benzimidazol-2-yl)methyl]amino}-6-cyclopropyl-1H-pyrazolo[3,4-b]pyrazin-1-yl)-2-methylbutan-2-ol]
